# Measured values as given in publication PMC11490872, “Drug-resistant menin variants retain high binding affinity and interactions with MLL1” (The Journal of Biological Chemistry, 2024).
# Where a chain is given by its changes, count along the chain named. pKd: −log10 of the molar value. Where no end group is shown, it is not given here.
# Tests used:
# menin^G331R = molecular target: T1, menin^G331R (Homo sapiens, UniProt O00255, G326R); test: FP binding of fluorescein-labeled MLL1 peptides to menin^G331R; details: versus menin^WT, Fig. 1B (FP and ITC)
# T1 construct: The gene encoding full-length human menin was cloned into a pET32a expression vector; thioredoxin-His6 (cleaved yes); made in house; host or cells: E. coli BL21(DE3)
# T1 sequence (O00255 1-610 G326R): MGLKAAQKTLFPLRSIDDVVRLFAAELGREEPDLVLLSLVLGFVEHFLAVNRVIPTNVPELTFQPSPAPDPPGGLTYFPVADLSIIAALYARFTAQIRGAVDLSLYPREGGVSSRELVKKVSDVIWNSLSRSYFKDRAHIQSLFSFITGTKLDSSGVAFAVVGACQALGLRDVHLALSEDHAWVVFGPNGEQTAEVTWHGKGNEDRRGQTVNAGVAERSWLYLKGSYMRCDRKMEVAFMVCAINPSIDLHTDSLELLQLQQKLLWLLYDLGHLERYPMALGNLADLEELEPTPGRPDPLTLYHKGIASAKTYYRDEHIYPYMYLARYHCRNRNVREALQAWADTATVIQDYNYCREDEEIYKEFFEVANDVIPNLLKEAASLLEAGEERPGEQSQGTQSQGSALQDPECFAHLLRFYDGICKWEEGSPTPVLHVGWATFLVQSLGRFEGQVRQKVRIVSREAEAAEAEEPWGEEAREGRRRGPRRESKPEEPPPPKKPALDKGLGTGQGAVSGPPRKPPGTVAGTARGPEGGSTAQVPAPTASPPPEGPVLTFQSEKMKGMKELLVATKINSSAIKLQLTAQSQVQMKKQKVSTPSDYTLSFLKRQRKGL
# Experimental: (§1) FP binding experiments utilized MLL1-derived peptides, FLSN-MLL1^4-43 at 4 nM and FLSN-MLL1^4-15 at 10 nM, titrated against a range of menin concentrations in the FP buffer (50 mM Tris pH 7.5, 50 mM NaCl, 1 mM TCEP) to obtain Kd measurements. Protein-peptide complexes were incubated for 1 h before measuring the change in fluorescence polarization and anisotropy at 525 nm after excitations at 495 nm using the PHERAstar microplate reader (BMG) ([2]).
# (§2) FP competition experiments used FLSN-MLL1^4-43 at 4 nM and menin at 4 nM against varying concentrations of unlabeled MLL1 peptides in FP buffer for IC50 determination. Protein-peptide complexes were incubated for 1 h before unlabeled peptide competitors were added to ensure complete binding. Unlabeled peptide competitors were incubated with the protein-peptide complexes for 3 h before measurement using the PHERAstar microplate reader ([25]). Experiments with Revumenib were run with the same steps and conditions but used 5% DMSO in the final solution. Kd and IC50 values were calculated using GraphPad Prism 10 by plotting mP values measured for each protein/MLL1 peptide or Revumenib as a function of protein/MLL1 peptide (or Revumenib) concentration ([25]). All FP binding and competition experiments were run in triplicate.
# menin^G331D = molecular target: T2, menin^G331D (Homo sapiens, UniProt O00255, G326D); test: FP binding of fluorescein-labeled MLL1 peptides to menin^G331D; details: versus menin^WT, Fig. 1B (FP and ITC)
# T2 construct: The gene encoding full-length human menin was cloned into a pET32a expression vector; thioredoxin-His6 (cleaved yes); made in house; host or cells: E. coli BL21(DE3)
# T2 sequence (O00255 1-610 G326D): T1 sequence (O00255 1-610 G326R) with R326D
# Experimental: as §1, §2
# [1] = system: wild-type, M327I, T349M, and G331R menin bound to FLSN-MLL1^4-43; test: FP competition, stated over wild-type, M327I, T349M and G331R menin; format: binding, human; details: versus MLL1^46
# Experimental: as §2
# [2] = system: patients with MLL1-r and NPM1-mut acute leukemias; details: cited from earlier work
# menin = molecular target: menin; set-up: method as in PMID 20961854, PMID 22936661; details: cited from earlier work
# [3] = molecular target: MLL1 MBM1 6-13 (Homo sapiens) (UniProt Q03164); details: cited from earlier work
# [4] = molecular target: MLL1 MBM2 24-40 (Homo sapiens) (UniProt Q03164); details: cited from earlier work
# [5] = molecular target: T3, menin^G331D-FLSN-MLL1^4-43 (Homo sapiens, UniProt O00255, G326D); test: FP competition, displacement of FLSN-MLL1^4-43 from menin^G331D; format: binding; details: even with increased incubation times, Fig. S6
# T3 construct: The gene encoding full-length human menin was cloned into a pET32a expression vector; thioredoxin-His6 (cleaved yes); made in house; host or cells: E. coli BL21(DE3); probe peptide from GenScript
# T3 sequence (O00255 1-610 G326D): T1 sequence (O00255 1-610 G326R) with R326D
# Experimental: To better understand the mechanism of MLL1 binding with menin mutants, we performed FP competition experiments using FLSN-MLL1^4-43 as a fluorescent probe for competitive displacement by MLL1 peptides ([25]). First, we tested competition with MLL1^160 and found very similar IC50 values for wild-type menin and the three mutants M327I, T349M, and G331R, ranging between 4.1 and 8 nM (Fig. 3, A and B). […] We have hypothesized that the lack of competition with MLL1 for the menin^G331D mutant might result from a much slower dissociation rate of the menin^G331D–MLL1 complex, and to evaluate this we performed time-dependent competition experiments with MLL1^160 and MLL1^46. Standard conditions in the FP assay include 3 h incubations of the menin-FLSN-MLL1^4-43 complex with competitors.
# as §2
# [6] = Phase 1/2, AML patients with KMT2A (MLL1) rearrangements and NPM1 mutations
# MLL1 MBM1 6-13 (Homo sapiens), sequence (Q03164 whole entry, looked up, tested part not stated): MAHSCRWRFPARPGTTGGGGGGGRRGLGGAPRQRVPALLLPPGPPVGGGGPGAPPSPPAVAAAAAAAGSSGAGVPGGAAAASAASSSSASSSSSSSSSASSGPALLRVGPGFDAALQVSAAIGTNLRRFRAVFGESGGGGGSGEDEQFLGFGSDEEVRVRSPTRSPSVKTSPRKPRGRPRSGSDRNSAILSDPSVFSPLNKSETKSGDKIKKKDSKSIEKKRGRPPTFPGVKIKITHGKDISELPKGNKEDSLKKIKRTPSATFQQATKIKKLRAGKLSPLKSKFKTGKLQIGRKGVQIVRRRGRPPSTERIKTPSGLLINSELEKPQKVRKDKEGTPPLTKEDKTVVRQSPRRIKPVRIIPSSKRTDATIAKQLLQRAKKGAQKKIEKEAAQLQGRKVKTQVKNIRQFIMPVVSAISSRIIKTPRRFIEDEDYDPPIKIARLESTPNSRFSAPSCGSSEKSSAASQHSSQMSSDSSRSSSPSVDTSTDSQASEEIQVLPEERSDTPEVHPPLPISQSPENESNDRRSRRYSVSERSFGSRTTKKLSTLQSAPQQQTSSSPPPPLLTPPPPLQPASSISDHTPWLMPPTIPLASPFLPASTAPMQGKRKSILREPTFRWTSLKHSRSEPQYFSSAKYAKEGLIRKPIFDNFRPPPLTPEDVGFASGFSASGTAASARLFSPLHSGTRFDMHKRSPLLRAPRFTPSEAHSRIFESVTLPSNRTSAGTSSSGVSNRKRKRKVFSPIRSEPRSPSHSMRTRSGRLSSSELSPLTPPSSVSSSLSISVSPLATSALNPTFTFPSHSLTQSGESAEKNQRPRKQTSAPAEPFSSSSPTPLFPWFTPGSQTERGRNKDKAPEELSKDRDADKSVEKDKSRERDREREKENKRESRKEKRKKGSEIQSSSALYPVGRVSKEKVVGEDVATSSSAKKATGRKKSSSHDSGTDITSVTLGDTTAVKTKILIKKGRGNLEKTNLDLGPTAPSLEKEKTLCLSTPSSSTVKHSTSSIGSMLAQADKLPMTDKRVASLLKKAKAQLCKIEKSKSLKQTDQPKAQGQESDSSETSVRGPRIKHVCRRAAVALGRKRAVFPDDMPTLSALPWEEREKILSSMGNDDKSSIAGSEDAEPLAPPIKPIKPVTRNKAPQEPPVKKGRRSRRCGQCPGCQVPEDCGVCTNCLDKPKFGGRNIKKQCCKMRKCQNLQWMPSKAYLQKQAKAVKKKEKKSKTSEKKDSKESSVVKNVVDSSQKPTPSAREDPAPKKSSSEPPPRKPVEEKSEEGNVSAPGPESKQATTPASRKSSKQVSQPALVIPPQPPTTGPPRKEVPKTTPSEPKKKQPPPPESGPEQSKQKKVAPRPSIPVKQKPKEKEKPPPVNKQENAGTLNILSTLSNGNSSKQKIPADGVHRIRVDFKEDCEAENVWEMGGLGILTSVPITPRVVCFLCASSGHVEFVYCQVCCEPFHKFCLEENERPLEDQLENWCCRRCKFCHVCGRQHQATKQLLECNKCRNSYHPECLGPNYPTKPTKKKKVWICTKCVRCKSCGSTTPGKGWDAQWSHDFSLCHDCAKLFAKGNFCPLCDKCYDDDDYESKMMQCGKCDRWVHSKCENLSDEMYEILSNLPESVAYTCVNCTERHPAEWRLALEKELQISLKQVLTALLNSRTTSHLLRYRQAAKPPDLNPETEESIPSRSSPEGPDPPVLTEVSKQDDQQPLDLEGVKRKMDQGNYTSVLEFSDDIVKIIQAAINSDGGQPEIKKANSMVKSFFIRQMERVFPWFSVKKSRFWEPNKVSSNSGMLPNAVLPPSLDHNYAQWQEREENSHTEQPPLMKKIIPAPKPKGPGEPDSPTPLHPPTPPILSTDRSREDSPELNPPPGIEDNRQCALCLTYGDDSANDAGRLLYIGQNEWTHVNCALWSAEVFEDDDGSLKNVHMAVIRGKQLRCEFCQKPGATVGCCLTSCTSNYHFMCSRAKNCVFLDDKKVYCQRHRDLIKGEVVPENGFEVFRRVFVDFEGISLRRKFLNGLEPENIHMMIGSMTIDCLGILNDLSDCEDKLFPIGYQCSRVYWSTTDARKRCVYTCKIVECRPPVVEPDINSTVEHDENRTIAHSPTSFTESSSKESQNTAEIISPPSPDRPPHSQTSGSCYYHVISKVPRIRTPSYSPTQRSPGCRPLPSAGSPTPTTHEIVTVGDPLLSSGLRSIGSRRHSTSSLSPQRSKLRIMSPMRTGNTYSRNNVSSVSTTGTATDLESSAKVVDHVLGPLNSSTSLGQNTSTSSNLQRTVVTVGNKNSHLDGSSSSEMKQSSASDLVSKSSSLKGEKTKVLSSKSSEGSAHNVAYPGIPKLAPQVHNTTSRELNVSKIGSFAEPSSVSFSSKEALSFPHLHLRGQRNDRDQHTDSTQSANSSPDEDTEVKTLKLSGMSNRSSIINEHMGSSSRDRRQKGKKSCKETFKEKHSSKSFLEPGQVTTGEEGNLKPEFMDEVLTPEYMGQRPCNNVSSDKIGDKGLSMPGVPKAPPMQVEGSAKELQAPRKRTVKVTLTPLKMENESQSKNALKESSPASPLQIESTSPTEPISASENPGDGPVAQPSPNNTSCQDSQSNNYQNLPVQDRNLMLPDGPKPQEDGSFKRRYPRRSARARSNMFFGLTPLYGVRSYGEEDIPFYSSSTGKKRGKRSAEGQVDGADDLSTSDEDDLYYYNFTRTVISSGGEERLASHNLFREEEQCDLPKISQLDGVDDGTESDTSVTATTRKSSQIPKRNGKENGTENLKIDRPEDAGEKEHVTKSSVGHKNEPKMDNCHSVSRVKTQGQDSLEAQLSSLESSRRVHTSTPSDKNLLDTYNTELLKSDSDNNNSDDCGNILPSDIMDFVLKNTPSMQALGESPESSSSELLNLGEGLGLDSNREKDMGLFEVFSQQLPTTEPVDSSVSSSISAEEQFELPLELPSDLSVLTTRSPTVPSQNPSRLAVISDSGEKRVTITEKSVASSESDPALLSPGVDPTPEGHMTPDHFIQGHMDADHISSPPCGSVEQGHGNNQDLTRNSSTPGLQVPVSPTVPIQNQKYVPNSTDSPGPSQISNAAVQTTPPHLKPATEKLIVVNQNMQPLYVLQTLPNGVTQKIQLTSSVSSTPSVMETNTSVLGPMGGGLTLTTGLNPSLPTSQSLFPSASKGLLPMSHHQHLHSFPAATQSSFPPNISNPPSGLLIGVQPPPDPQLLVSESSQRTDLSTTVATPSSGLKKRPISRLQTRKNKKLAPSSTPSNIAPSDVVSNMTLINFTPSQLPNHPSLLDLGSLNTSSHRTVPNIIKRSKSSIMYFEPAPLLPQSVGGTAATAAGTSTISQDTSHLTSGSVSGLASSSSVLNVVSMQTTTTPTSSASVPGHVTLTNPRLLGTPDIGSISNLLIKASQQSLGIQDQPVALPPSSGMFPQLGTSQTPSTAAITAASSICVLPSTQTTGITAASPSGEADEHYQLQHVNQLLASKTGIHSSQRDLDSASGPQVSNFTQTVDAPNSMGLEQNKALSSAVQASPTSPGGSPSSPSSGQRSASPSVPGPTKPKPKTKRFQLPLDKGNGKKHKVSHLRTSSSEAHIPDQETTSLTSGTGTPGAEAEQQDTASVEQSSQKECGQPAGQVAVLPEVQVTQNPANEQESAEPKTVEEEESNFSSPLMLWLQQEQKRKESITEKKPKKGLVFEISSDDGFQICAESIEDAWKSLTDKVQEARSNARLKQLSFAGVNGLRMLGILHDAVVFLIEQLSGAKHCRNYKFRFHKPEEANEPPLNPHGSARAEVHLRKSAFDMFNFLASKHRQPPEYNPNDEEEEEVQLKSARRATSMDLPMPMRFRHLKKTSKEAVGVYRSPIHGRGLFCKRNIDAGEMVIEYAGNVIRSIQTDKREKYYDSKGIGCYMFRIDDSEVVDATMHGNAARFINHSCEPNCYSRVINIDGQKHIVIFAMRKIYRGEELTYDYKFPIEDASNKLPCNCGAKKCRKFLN
compound,measurement,setting,value
C[C@H](NC(=O)[C@@H](N)CO)C(=O)N[C@@H](CCCNC(=N)N)C(=O)N[C@@H](Cc1c[nH]c2ccccc12)C(=O)N[C@@H](CCCNC(=N)N)C(=O)N[C@@H](Cc1ccccc1)C(=O)N1CCC[C@H]1C(=O)N[C@@H](C)C(=O)N[C@@H](CCCNC(=N)N)C(=O)N1CCC[C@H]1C(=O)NCC(=O)N[C@H](C(N)=O)[C@@H](C)O [MLL1^4-15],decrease in binding affinity for G331R,menin^G331R,approximately 3 fold
same,decrease in binding affinity for G331D,menin^G331D,~10 fold
same,weaker competition activity than MLL1^46,[1],3 orders of magnitude
CNc1nc(NC2CCN(Cc3ccc4c(cc(C#N)n4C[C@H](C)N4CCN(S(C)(=O)=O)CC4)c3C)CC2)c2cc(CC(F)(F)F)sc2n1 [Ziftomenib],complete remission,[2]; [6],~35%
same,overall response rate,[2]; [6],~45%
same,rate of complete remission,"[2]; phase 1/2 first-in-human trials, MLL1-r and NPM1-mut acute leukemias",over 30%
"MBM1: menin binding motif 1, amino acid residues 6 to 13 of MLL1 (RWRFPARP; UniProt Q03164 6-13, looked up, fragment)",decrease in binding affinity for G331R,menin^G331R,3 fold
same,decrease in binding affinity for G331D,menin^G331D,10 fold
"MBM2: menin binding motif 2, residues 24 to 40 of MLL1 (RRGLGGAPRQRVPALLL; UniProt Q03164 24-40, looked up, fragment)",pKd,menin,6.00
Menin (from UniProt O00255),pKd,[3],7.25
same,pKd,[4],6.00
"SARWRFPARPGTTGGGGGGGRRGLG-NH2 (C-terminus assumed) [MLL1^4-28, reference compound]",competition for the menin^G331D variant,[5],no significant competition
